# Experimental data taken from US11634409B2, “Compounds for the treatment of BRAF-associated diseases and disorders” (Array BioPharma Inc., priority 2019, dated 2023).
# Tested on: A375-luciferase intracranial tumor xenografts
# Test: Intracranial A375-luciferase efficacy and survival mouse tumor model
# Type: in vivo, Female nu/nu NCr mice
# Settings: BID PO 60 consecutive days, FIG. 15
# Method: Female nu/nu NCr mice from Envigo (Indianapolis, Ind.) were obtained at 5-6 weeks of age and housed in groups of 5. Following a one week minimum acclimation period, mice received orthotopic (i.c.) intracranial injections of 3.0×10^3 A375-luciferase tumor cells suspended in a volume of 10 μL 0.9% sterile Dulbecco's phosphate buffered saline (DPBS) using the top-down approach (Laursen and Belknap, 1986). Seven days post cell implant (Day 1), animals were randomized and sorted into five groups (n=10/group).
# Test compounds were given at a dose volume of 10 mL/kg, and vehicles were matched for each group to control for dosing stress, i.e. all groups received twice daily (BID) dose administration by oral gavage (PO) at the relevant dose volumes and schedule shown in Table 9. Tumor growth was monitored by measuring luciferase activity twice per week. Total flux/mouse can vary by an order of magnitude on day 1 of study start (start of dosing). The total flux was normalized per mouse by assigning the first measurement of flux on day 2 as 100%. Body weight loss as an indicator of tumor progression was determined daily during the dosing interval and then as needed (at least once weekly). Survival was evaluated through day 90 (30 days post-dosing cessation).
structure (smiles),measurement,value
"Cc1c(Nc2c(F)ccc(NS(=O)(=O)CCCF)c2Cl)ccc2ncn(C)c(=O)c12 [Example 82, N-(2-chloro-3-((3,5-dimethyl-4-oxo-3,4-dihydroquinazolin-6-yl)amino)-4-fluorophenyl)-3-fluoropropane-1-sulfonamide]","Tumor growth (total bioluminescence, luciferase activity)",significant effect on tumor growth
